The values that follow are results of earlier work, collected in patent US10478452B2, “Antiviral pharmaceutical composition for topical use” (QUIMICA LUAR SRL, priority 2015, dated 2019).

The conditions of this data set: according to some studies.

With `Nc1nc(O)c2ncn(COC(CO)CO)c2n1` [ganciclovir], the “concentrations of intracellular triphosphate ganciclovir relative to those of acyclovir” value is listed as “approximately ten-fold higher” and the “mean life of intracellular triphosphate” value is on record as “more than 24 hours”.
